Measurements published in ChEMBL document CHEMBL1156560, “4-(1,1-Dioxo-1,4-dihydro-1lambda6-benzo[1,4]thiazin-3-yl)-5-hydroxy-2H-pyridazin-3-ones as potent inhibitors of HCV NS5B polymerase” (Bioorg Med Chem Lett, 2008).

How the values were obtained:
[1] = Apparent permeability from apical to basolateral side in human Caco-2 cells at 10 uM; assay type: ADME, cell-based
[2] = Oral bioavailability in cynomolgus monkey at 1 mg/kg; assay type: ADME, organism-based, Macaca fascicularis; conditions: in vivo
[3] = Metabolic stability in monkey liver microsomes; assay type: ADME, Macaca mulatta, Microsome; conditions: rhesus monkey
Hepatitis C virus [4] = assay: Inhibition of HCV 1b BK delta21 NS5B delta21 polymerase; design: species or system Hepatitis C virus subtype 1b
Hepatitis C virus [5] = assay: Antiviral activity against HCV 1b BK delta21 in Huh7/C24 cells after 72 hrs by replicon assay; assay type: functional, organism-based, Hepacivirus hominis; conditions: genotype 1b BK, Huh7/C24, 72 h
[6] = Cytotoxicity against human Huh7/C24 cells after 72 hrs; assay type: cell-based, Huh-7
[7] = Metabolic stability in human liver microsomes assessed as half life; assay type: ADME, Microsome

Row | Papp A→B at 10 µM [1] [×10⁻⁶ cm/s] | bioavailability [2] [%] | half-life [3] [min] | IC50 (Hepatitis C virus [4]) [nM] | EC50 (Hepatitis C virus [5]) [nM] | half-life [7] [min] | Compound | CC50 at 72 h [6] [nM]
1 | 0.2 | 12 | – | – | – | – | CC(C)CCn1nc(-c2cccs2)c(O)c(C2=NS(=O)(=O)c3cc(N(C)S(C)(=O)=O)ccc3N2)c1=O | –
2 | 0.02 | – | – | – | – | – | CC(C)CCn1nc(-c2cccs2)c(O)c(C2=Nc3ccc(NS(C)(=O)=O)cc3S(=O)(=O)N2)c1=O | –
3 | 1.3 | 33 | > 60 | – | – | – | Cc1ccc(-c2nn(Cc3ccccc3)c(=O)c(C3=Nc4ccccc4S(=O)(=O)N3)c2O)s1 | –
4 | – | 0 | – | < 10 | 8.5 | – | CC(C)CCn1c(=O)c(C2=Nc3ccc(NS(C)(=O)=O)cc3S(=O)(=O)N2)c(O)c2cccn21 | –
5 | – | – | – | 18 | 36 | > 60 | CS(=O)(=O)Nc1ccc2c(c1)S(=O)(=O)C=C(c1c(O)c(-c3cccs3)nn(Cc3ccccc3)c1=O)N2 | > 1000
6 | 0.012 | 4 | 20 | < 10 | 1.1 | > 60 | CC(C)CCn1nc(-c2cccs2)c(O)c(C2=CS(=O)(=O)c3cc(NS(C)(=O)=O)ccc3N2)c1=O | > 1000
7 | 0.019 | 1 | 34 | 250 | 190 | 36 | CC(C)CCn1nc(-c2ccccc2)c(O)c(C2=CS(=O)(=O)c3cc(NS(C)(=O)=O)ccc3N2)c1=O | > 33000
8 | – | – | – | 1600 | – | – | CC(C)CCn1nc(-c2cccs2)c(O)c(C2=CS(=O)(=O)c3cc(N(C)S(C)(=O)=O)ccc3N2)c1=O | –
9 | – | – | – | < 10 | 2.7 | 30 | CCC(C)(C)CCn1nc(-c2cccs2)c(O)c(C2=CS(=O)(=O)c3cc(NS(C)(=O)=O)ccc3N2)c1=O | > 1000
10 | – | – | – | 39 | 15 | 43 | CS(=O)(=O)Nc1ccc2c(c1)S(=O)(=O)C=C(c1c(O)c(-c3cccs3)nn(CC3CCCC3)c1=O)N2 | > 1000
11 | – | – | – | 15 | 3.5 | > 60 | CS(=O)(=O)Nc1ccc2c(c1)S(=O)(=O)C=C(c1c(O)c(-c3cccs3)nn(CC3CC3)c1=O)N2 | > 1000
12 | 0.3 | 1 | 4.7 | < 10 | 1.5 | 30 | CC(C)(C)CCn1c(=O)c(C2=CS(=O)(=O)c3cc(NS(C)(=O)=O)ccc3N2)c(O)c2cccn21 | > 1000
13 | 0.3 | 13 | 37 | 12000 | – | – | Cc1ccc(-c2nn(Cc3ccccc3)c(=O)c(C3=CS(=O)(=O)c4ccccc4N3)c2O)s1 | –
14 | – | – | – | 9000 | – | > 60 | Cc1ccc(-c2nn(Cc3ccccc3)c(=O)c(C3=CS(=O)(=O)c4cc(N(C)S(C)(=O)=O)ccc4N3)c2O)s1 | –
15 | – | – | – | 1600 | – | > 60 | Cc1ccc(-c2nn(Cc3ccccc3)c(=O)c(C3=CS(=O)(=O)c4cc(NS(C)(=O)=O)ccc4N3)c2O)s1 | –
16 | 0.027 | – | – | 27 | 13 | > 60 | CC(C)CCn1c(=O)c(C2=CS(=O)(=O)c3cc(NS(C)(=O)=O)ccc3N2)c(O)c2cccn21 | > 1000
17 | 0.012 | 4 | 20 | 440 | 940 | > 60 | CC(C)CCn1c(=O)c(C2=CS(=O)(=O)c3cc(N(C)S(C)(=O)=O)ccc3N2)c(O)c2cccn21 | > 33000
